Reference: US12577242B2, “Pyrrolopyridine and imidazopyridine antiviral compounds” (KATHOLIEKE UNIVERSITEIT LEUVEN, priority 2020, dated 2026)

Tests used:
[1] = tested on: Bovine viral diarrhea (BVD) virus; assay: Anti-BVDV CPE inhibition assay in MDBK cells; settings: for EC50: Bovine viral diarrhea virus isolates and strains, MDBK, in Bos taurus, 96 h; for SI (selectivity index, ratio of CC50 and EC50): CC50/EC50, MDBK cells, BVD virus
[2] = Cytotoxicity in MDBK cells (no BVD virus added); settings: bovine, MDBK cells (Madin-Darby bovine kidney), no virus added

SMILES	EC50 [1]	SI (selectivity index, ratio of CC50 and EC50) [1]	CC50 at 4 days [2]
Cc1ccc2sc(Cn3ccc4nc(-c5cnn(C)c5C)nc-4c3)nc2c1 [CPD-2, 2-((2-(1,5-dimethyl-1H-pyrazol-4-yl)-5H-imidazo[4,5-c]pyridin-5-yl)methyl)-5-methylbenzo[d]thiazole]	79 ± 4 nM	>633	> 50000 nM
Fc1ccccc1-c1nc2ccn(Cc3nc4ccc(Cl)cc4s3)cc-2n1 [CPD-25, 6-chloro-2-((2-(2-fluorophenyl)-5H-imidazo[4,5-c]pyridin-5-yl)methyl)benzo[d]thiazole]	78 ± 4 nM	>641	> 50000 nM
N#Cc1ccc(-c2nc3ccn(Cc4cc(-c5cc(F)ccc5F)no4)cc-3n2)cc1 [CPD-43, 4-(5-((3-(2,5-difluorophenyl)isoxazol-5-yl)methyl)-5H-imidazo[4,5-c]pyridin-2-yl)benzonitrile]	81 ± 8 nM	>617	> 50000 nM
COc1ncccc1-c1cc2cn(Cc3nc4cc(C)ccc4o3)ccc-2n1 [Compound XXVII, 2-((2-(2-methoxypyridin-3-yl)-5H-pyrrolo[3,2-c]pyridin-5-yl)methyl)-5-methyl-1,3-benzoxazole]	16 ± 1 nM	1313	21000 nM
COc1ncccc1-c1nc2ccn(Cc3nc4ccc(C)cc4s3)cc-2n1 [CPD-14, 2-((2-(2-methoxypyridin-3-yl)-5H-imidazo[4,5-c]pyridin-5-yl)methyl)-6-methylbenzo[d]thiazole]	20 ± 4 nM	>2500	> 50000 nM
Cc1ccc2nc(Cn3ccc4nc(-c5cnn(C)c5C)cc-4c3)sc2c1 [Compound XXXII, 2-{[2-(1,5-dimethyl-1H-pyrazol-4-yl)-5H-pyrrolo[3,2-c]pyridin-5-yl]methyl}-6-methyl-1,3-benzothiazole]	12 ± 8 nM	1750	21000 nM
Fc1cccc(-c2nc3ccn(Cc4cc(-c5cc(F)ccc5F)no4)cc-3n2)c1 [CPD-39, 3-(2,5-difluorophenyl)-5-((2-(3-fluorophenyl)-5H-imidazo[4,5-c]pyridin-5-yl)methyl)isoxazole]	84 ± 8 nM	>595	> 50000 nM
Fc1ccc(OC(F)(F)F)cc1-c1cc2ccn(Cn3nnc4ccccc43)cc-2n1 [Compound II, 1-({2-[2-fluoro-5-(trifluoromethoxy)phenyl]-6H-pyrrolo[2,3-c]pyridin-6-yl}methyl)-1H-benzotriazole]	23 nM	870	20000 nM
OCc1ccccc1-c1nc2ccn(Cc3cc(-c4cc(F)ccc4F)no3)cc-2n1 [CPD-46, (2-(5-((3-(2,5-difluorophenyl)isoxazol-5-yl)methyl)-5H-imidazo[4,5-c]pyridin-2-yl)phenyl)methanol]	465 ± 26 nM	>108	> 50000 nM
Fc1ccc2nc(Cn3ccc4nc(-c5ccccc5F)nc-4c3)[nH]c2c1 [CPD-37, 5-((6-fluoro-1H-benzo[d]imidazol-2-yl)methyl)-2-(2-fluorophenyl)-5H-imidazo[4,5-c]pyridine]	370 ± 74 nM	>135	> 50000 nM
Cc1ccc2oc(Cn3ccc4nc(-c5ccccc5CO)cc-4c3)nc2c1 [Compound XXVI, (2-(5-((5-methyl-1,3-benzoxazol-2-yl)methyl)-5H-pyrrolo[3,2-c]pyridin-2-yl)phenyl)methanol]	311 ± 78 nM	71	22000 nM
Cc1ccc2nc(Cn3ccc4cc(-c5ccccc5F)nc-4c3)sc2c1 [Compound XI, 2-{[2-(2-fluorophenyl)-6H-pyrrolo[2,3-c]pyridin-6-yl]methyl}-6-methyl-1,3-benzothiazole]	8 nM	500	4000 nM
COc1ncccc1-c1nc2ccn(Cc3nc4cc(C)ccc4o3)cc-2n1 [CPD-16, 2-((2-(2-methoxypyridin-3-yl)-5H-imidazo[4,5-c]pyridin-5-yl)methyl)-5-methylbenzo[d]oxazole]	117 nM	>427	> 50000 nM
OCc1ccc2nc(Cn3ccc4nc(-c5ccccc5F)nc-4c3)sc2c1 [CPD-27, (2-((2-(2-fluorophenyl)-5H-imidazo[4,5-c]pyridin-5-yl)methyl)benzo[d]thiazol-6-yl)methanol]	366 nM	>137	> 50000 nM
COc1ccccc1-c1nc2ccn(Cc3nc4ccc(C)cc4s3)cc-2n1 [CPD-18, 2-((2-(2-methoxyphenyl)-5H-imidazo[4,5-c]pyridin-5-yl)methyl)-6-methylbenzo[d]thiazole]	2 ± 1 nM	10000	20000 nM
Cc1scc(-c2nc3ccn(Cc4cc(-c5cc(F)ccc5F)no4)cc-3n2)c1C [CPD-49, 3-(2,5-difluorophenyl)-5-((2-(4,5-dimethylthiophen-3-yl)-5H-imidazo[4,5-c]pyridin-5-yl)methyl)isoxazole]	409 nM	76	31000 nM
N#Cc1ccc(-c2cc3ccn(Cn4nnc5ccccc54)cc-3n2)cc1 [Compound VI, 4-{6-[(1H-benzotriazol-1-yl)methyl]-6H-pyrrolo[2,3-c]pyridin-2-yl}benzonitrile]	16 nM	>3125	> 50000 nM
Fc1ccccc1-c1nc2ccn(Cc3nc4cc(Cl)ccc4s3)cc-2n1 [CPD-26, 5-chloro-2-((2-(2-fluorophenyl)-5H-imidazo[4,5-c]pyridin-5-yl)methyl)benzo[d]thiazole]	96 ± 6 nM	>521	> 50000 nM
Cc1ccc2oc(Cn3ccc4nc(-c5ccccc5F)cc-4c3)nc2c1 [Compound XXV, 2-{[2-(2-fluorophenyl)-5H-pyrrolo[3,2-c]pyridin-5-yl]methyl}-5-methyl-1,3-benzoxazole]	4 ± 2 nM	1750	7000 nM
Cc1ccc2nc(Cn3ccc4nc(-c5ccccc5F)nc-4c3)sc2c1 [CPD-22, 2-((2-(2-fluorophenyl)-5H-imidazo[4,5-c]pyridin-5-yl)methyl)-6-methylbenzo[d]thiazole]	19 ± 5 nM	>5263	> 100000 nM
CN(C)c1cccc(-c2nc3ccn(Cc4cc(-c5cc(F)ccc5F)no4)cc-3n2)c1 [CPD-44, 3-(5-((3-(2,5-difluorophenyl)isoxazol-5-yl)methyl)-5H-imidazo[4,5-c]pyridin-2-yl)-N,N-dimethylaniline]	88 ± 17 nM	>568	> 50000 nM
COc1ncccc1-c1cc2ccn(Cn3nnc4ccccc43)cc-2n1 [Compound VII, 1-{[2-(2-methoxypyridin-3-yl)-6H-pyrrolo[2,3-c]pyridin-6-yl]methyl}-1H-benzotriazole]	16 ± 1 nM	1375	22000 nM
Cc1ccc2nc(Cn3ccc4cc(-c5ccccc5CO)nc-4c3)[nH]c2c1 [Compound XVI, (2-(6-((6-methyl-1H-benzoimidazol-2-yl)methyl)-6H-pyrrolo[2,3-c]pyridin-2-yl)phenyl)methanol]	294 ± 70 nM	75	22000 nM
COc1ncccc1-c1cc2ccn(Cc3nc4cc(C)ccc4o3)cc-2n1 [Compound X, 2-((2-(2-methoxypyridin-3-yl)-6H-pyrrolo[2,3-c]pyridin-6-yl)methyl)-5-methyl-1,3-benzoxazole]	7 ± 4 nM	571	4000 nM
Fc1ccccc1-c1nc2ccn(Cc3nc4ccccc4s3)cc-2n1 [CPD-24, 2-((2-(2-fluorophenyl)-5H-imidazo[4,5-c]pyridin-5-yl)methyl)benzo[d]thiazole]	299 ± 91 nM	>167	> 50000 nM
Cc1c(-c2nc3ccn(Cc4nc5ccccc5s4)cc-3n2)cnn1C [CPD-3, 2-((2-(1,5-dimethyl-1H-pyrazol-4-yl)-5H-imidazo[4,5-c]pyridin-5-yl)methyl)benzo[d]thiazole]	78 ± 5 nM	>641	> 50000 nM
OCCOc1ccc(F)c(-c2nc3ccn(Cc4cc(-c5cc(F)ccc5F)no4)cc-3n2)c1 [CPD-42, 2-(3-(5-((3-(2,5-difluorophenyl)isoxazol-5-yl)methyl)-5H-imidazo[4,5-c]pyridin-2-yl)-4-fluorophenoxy)ethan-1-ol]	460 ± 48 nM	>109	> 50000 nM
Cc1nn(C)c(C)c1-c1nc2ccn(Cc3cc(-c4cc(F)ccc4F)no3)cc-2n1 [CPD-13, 3-(2,5-difluorophenyl)-5-((2-(1,3,5-trimethyl-1H-pyrazol-4-yl)-5H-imidazo[4,5-c]pyridin-5-yl)methyl)isoxazole]	95 ± 22 nM	>526	> 50000 nM
Cc1ccc2nc(Cn3ccc4cc(-c5ccccc5CO)nc-4c3)sc2c1 [Compound XIII, (2-{6-[(6-methyl-1,3-benzothiazol-2-yl)methyl]-6H-pyrrolo[2,3-c]pyridin-2-yl}phenyl)methanol]	9 ± 8 nM	2000	18000 nM
Fc1ccccc1-c1nc2ccn(Cn3nnc4ccccc43)cc-2n1 [CPD-38, 1-((2-(2-fluorophenyl)-5H-imidazo[4,5-c]pyridin-5-yl)methyl)-1H-benzo[d][1,2,3]triazole]	336 ± 103 nM	>149	> 50000 nM
